Measurements from patent US20230331690A1, “THC DERIVATIVES, ORAL DOSAGE FORMS COMPRISING SAME, USES THEREOF FOR TREATING DISEASES AND DISORDERS AND SYNTHESIS THEREOF” (BAR-ILAN UNIVERSITY, priority 2020, published 2023).

Key:
[1] = Pharmacokinetics, blood samples (Example 17); details: 0.5 h after i.p. injection of THC or THC-d5, label = analyte; for Component in the blood, Average: n=6 (THC-d5 n=5)
Method: The pharmacokinetics of 9-CD3-(8-D2)-THC compared to natural THC was evaluated using both intraperitoneal i.p. injection and an oral gavage administration for each material. The mice were divided into four groups containing 6 mice (24 mice total). For each group of mice, a blood sample was withdrawn at baseline (t=0), and half-hour intervals (t=0.5, 2 and 5 h) after administration of the drug. Three mice, half of each group, were euthanized with CO2 after 5 h and their organs (brain and liver) were collected. From the second half of each group, another blood sample was withdrawn 24 h after administration, and then these animals were euthanized and the brain and liver were collected for analysis.

[2] = Pharmacokinetics, liver samples (Example 17); format: in vivo, mice; details: label = analyte; for Component in the liver, Average: n=3
[3] = Persistence over time, blood samples (Example 18); format: in vivo, mice; details: label = analyte
Method: (§1) Blood samples from each mouse were collected at each time point for the pharmacokinetics tests. For 6 h after administrating of all tested drugs, and after testing their WRL on the hot plate, half the mice (n=3) of each group were sacrificed, and the liver and brain of each animal were taken for pharmacokinetics tests. From the remaining mice, blood samples were acquired at 12 h after administration for pharmacokinetics tests. At 24 h after drug administration, and after checking the WRL again, second half of each group of mice were sacrificed, and the liver and brain of each animal were taken for pharmacokinetics tests.

[4] = Persistence over time, brain samples postmortem (Example 18); format: in vivo, mice; details: 8 mg/kg administered, died at 6 h; number in brackets = mice with a value
Method: as §1
(§2) All the results of the brain and liver samples, which were taken postmortem 6 h or 24 h after administration (n=3) are summarized in Tables 12-13.

[5] = Persistence over time, liver samples postmortem (Example 18); format: in vivo, mice
Method: as §1, §2

[6] = 5 h after oral gavage administration of THC or THC-d5
[7] = 24 h after i.p. injection of THC or THC-d5
[8] = 4 mg/kg administration of THC or THC-d5, Time 0.5 h
[9] = 4 mg/kg administration, Time 3 h
[10] = 8 mg/kg administration of THC or THC-d5, Time 0.5 h
[11] = 8 mg/kg administration, Time 3 h
[12] = 2 mg/kg administered, died at 6 h
[13] = 4 mg/kg administered, died at 6 h
[14] = 8 mg/kg administered, died at 6 h

SMILES | Component in the blood, mouse 1 [1] [ng/mL] | Component in the blood, mouse 2 [1] [ng/mL] | Component in the blood, mouse 3 [1] [ng/mL] | Component in the blood, mouse 4 [1] [ng/mL] | Component in the blood, mouse 5 [1] [ng/mL] | Component in the blood, mouse 6 [1] [ng/mL] | Component in the blood, Average [1] [ng/mL] | Component in the liver, mouse 1 [2, 6] [ng/mL] | Component in the liver, mouse 2 [2, 6] [ng/mL] | Component in the liver, mouse 3 [2, 6] [ng/mL] | Component in the liver, Average [2, 6] [ng/mL] | Component in the liver, mouse 3 [2, 7] [ng/mL] | Average results, blood samples [3, 8] [ng/mL] | Average results, blood samples [3, 9] | Average results, blood samples [3, 10] [ng/mL] | Average results, blood samples [3, 11] [ng/mL] | Average results for 3 mice - brain samples [4] | Average results for 3 mice (Table 13, liver) [5, 12] [ng/g] | Average results for 3 mice (Table 13, liver) [5, 13] [ng/g] | Average results for 3 mice (Table 13, liver) [5, 14] [ng/g] | further results
CCCCCc1cc(O)c2c(c1)OC(C)(C)[C@@H]1CCC(C(=O)O)=C[C@@H]21 [11-COOH-THC, 11-nor-9-carboxy-THC] | 30.26 | 22.27 | 20.76 | 32.18 | 25.30 | 19.81 | 25.10 | 38.89 | 33.82 | 25.34 | 32.68 | 1.49 | 11.87 | 1.39 (4/4) ng/mL | 15.85 | 3.44 | 2.04 (1) ng/g | 3.83 | 46.06 | 60.95 | Average results, blood samples ([3]; 4 mg/kg administration, Time 6 h): 0.41 (2/2) ng/mL; Average results, blood samples ([3]; 8 mg/kg administration, Time 6 h): 3.57 ng/mL; Average results, blood samples ([3]; 8 mg/kg administration, Time 12 h (3 mice)): 1.89 ng/mL; Average results for 3 mice (Table 13, liver) ([5]; 4 mg/kg administered, died at 24 h, number in brackets = mice with a value): 2.89 (1) ng/g
CCCCCc1cc(O)c2c(c1)OC(C)(C)[C@@H]1CCC(CO)=C[C@@H]21 [11-OH-THC] | 2.40 | 2.44 | 2.10 | 3.43 | 2.27 | 2.37 | 2.50 | 6.56 | 23.90 | 2.83 | 11.10 | 1.46 | 1.54 | 0.18 (2/2) ng/mL | 1.96 | 0.44 | 5.2 (2) ng/g | 8.76 | 41.89 | 22.94 | Component in the liver, mouse 1 [2, 7]: 0.37 ng/mL; Component in the liver, mouse 2 [2, 7]: 3.12 ng/mL; Average results for 3 mice (Table 13, liver) ([5]; 8 mg/kg administered, died at 24 h, number in brackets = mice with a value): 5.57 (1) ng/g
